Measurements reported in patent US7943660B2, “Inhibitors of the LFA-1/ICAM-1 interaction and uses thereof” (Dominion Pharmakine S.L., priority 2005, dated 2011).

Experiments:
[1] = test system: 51b murine colon carcinoma (51b-CC) cell adhesion to HSE cells; experiment: 51b colon carcinoma cell adhesion to HSE cells; assay type: cell-based; conditions: 51b cells, FIG. 6A
Experimental: Time-dependent adhesion assays was carried out on a quantitative basis according to previous validated bioassays (Vidal-Vanaclocha et al., Cancer Research, 1994, 54(10):2667-72). For tumor cell pre-labelling, they were allowed to accumulate the non-fluorescent sterase substrate BCECF-AM and to hydrolyze it to its fluorescent product BCECF which becomes trapped inside living cells. To do this, 50 μg of BCECF-AM were diluted in dry DMSO (5 μl) and DME medium until […] (40 μg/ml).
Tumor cells (5×10^6) were incubated in BCECF-AM solution at 37° C. for 30 min. After gently washing, tumor cells were resuspended in fresh medium (DMEM without phenol red) at a concentration of 2×10^6 cells/ml.
Twenty-four hours post-plating, primary cultured hepatic sinusoidal endothelial (HSE) cells were also used for adhesion assay. To determine the basal autofluorescence per well, plates were read on a fluorometric microplate reader (Multiskan Ascent, Thermo Labsystems) using 485/22 nm excitation and the 530/25 nm emission filter. Then, 2×10^5 labeled tumor cells were added to each well of HSE cells and to collagen pre-coated control wells.
However, in order to determine the exact number of cells in each well, co-culture plates were read for a second time. Then, plates were incubated at 37° C. […]

[2] = test system: Human peripheral blood lymphocyte (PBL) adhesion to immobilized human recombinant ICAM-1; experiment: Human PBL adhesion assay to immobilized recombinant human ICAM-1; assay type: cell-based; conditions: PBLs 100 ng/ml PMA 30 min, then HC0303 20 μg/5×10^5 cells for 30 min; FIG. 7; P<0.01
Experimental: Ninety six-well plates were coated with 2 μg/ml recombinant human ICAM-1 (R&D Systems, Minneapolis, Minn.) at 4° C. overnight. Nonspecific binding sites on plastic were blocked by treating the wells with 100 μl of PBS containing 0.5% BSA for 2 h at room temperature. Isolated human PBLs were incubated with either basal medium or 100 ng/ml PMA for 30 min. Then, PBLs were BCECF-AM-labeled and after washing, the compound HC0303 (20 μg/5×10^5 cells) was added for 30 min.
For adhesion assay, PBLs (5×10^4 per well) were added to quadruplicate wells. Then, plates were incubated for 1 hour at 37° C. before unattached cells were removed by washing three times with fresh medium. The number of adhering cells was determined using the same quantitative fluorescence measurement system as above described.
That this anti-adhesive effect of compound HC0303 is due to LFA-1/ICAM-1 interaction blockade was further confirmed along a lymphocyte adhesion assay to immobilized ICAM-1 substrate. Cultured PBLs were incubated with either basal medium or 100 ng/ml PMA for 30 min. Then, PBLs were BCECF-AM-labeled and after washing, compound HC0303 (20 μg/5×10^5 cells) was added for 30 minutes prior to the adhesion assay to a ICAM-1-coated plate. […] The results are the mean ±SD of three separate experiments, each in sextuplicate (n=18). […]

[3] = test system: VEGF production by B16M cells; experiment: Measurement of VEGF production by B16M cells in response to soluble ICAM-1 and H2O2 (ELISA); assay type: cell-based, murine; conditions: 10 μg/ml HC0303 30 min prior to 200 ng/ml sICAM-1, then DMEM or 10 μM H2O2 for 2 hours; FIG. 8; P<0.01
Experimental: Cultured B16M cells were incubated for 30 min with 200 ng/ml soluble ICAM-1 prior to either basal medium (DMEM) or 10 μM H2O2. Some cells were pre-incubated with 1 μg/ml anti-murine LFA-1 monoclonal antibody or 10 μg/ml compound HC0303 for 30 min before ICAM-1 addition. After 2 hours, supernatants were collected, centrifuged at 1,000 g for 10 min and subjected to 0.22 μm filtration.
The addition of either 1 μg/ml anti-murine LFA-1 monoclonal antibody or 10 μg/ml compound HC0303 for 30 minutes prior to sICAM-1 abrogated induced VEGF production (FIG. 8). Data represent the mean ±SD of two separate experiments; differences in VEGF production in treated versus untreated cells (*) and ICAM-1/H2O2-treated cells were statistically significant (P<0.01) by ANOVA and Bonferroni's post-hoc test.

[4] = test system: Co26-CC cells; experiment: Viability of Co26-CC cells after in vitro pretreatment; assay type: cell-based, murine; conditions: in vitro cancer cell pretreatment with HC0303

What does the source list for `CC[C@H](C)C(OCc1ccccc1)[C@@H]1[C@H]([N+](=O)[O-])[C@H](c2ccccc2)N[C@]1(C)C(=O)NCCC(=O)O` (stereo partly drawn) [HC0303, 3-[(2S,3R,4S,5S)-3-[(2S)-1-(Benzyloxy)-2-methylbutyl]-2-methyl-4-nitro-5-phenylpyrrolidine-2-carboxamido]propanoic acid]?
PMA-induced cancer cell adhesion to HSE cells ([1]; 100 ng/ml PMA 30 min, then HC0303 20 μg/5×10^5 cells for 30 min, P<0.01): significantly decreased; adhesion to untreated HSE cells (no PMA) ([1]; HC0303 20 μg/5×10^5 cells for 30 min): did not affect; PMA-induced adhesion of PBLs to immobilized human recombinant ICAM-1 [2]: significantly decreased; induced VEGF production (sICAM-1 / H2O2) [3]: abrogated; Cell viability of Co26-CC cells [4]: without Affecting Cell Viability
